ChEMBL document CHEMBL1145498, “A systematic interaction map of validated kinase inhibitors with Ser/Thr kinases” (Proc Natl Acad Sci U S A, 2007)

Tests used:
[1] = target: T1, 3-phosphoinositide-dependent protein kinase 1 (Homo sapiens) (UniProt O15530)
T1 sequence (whole entry): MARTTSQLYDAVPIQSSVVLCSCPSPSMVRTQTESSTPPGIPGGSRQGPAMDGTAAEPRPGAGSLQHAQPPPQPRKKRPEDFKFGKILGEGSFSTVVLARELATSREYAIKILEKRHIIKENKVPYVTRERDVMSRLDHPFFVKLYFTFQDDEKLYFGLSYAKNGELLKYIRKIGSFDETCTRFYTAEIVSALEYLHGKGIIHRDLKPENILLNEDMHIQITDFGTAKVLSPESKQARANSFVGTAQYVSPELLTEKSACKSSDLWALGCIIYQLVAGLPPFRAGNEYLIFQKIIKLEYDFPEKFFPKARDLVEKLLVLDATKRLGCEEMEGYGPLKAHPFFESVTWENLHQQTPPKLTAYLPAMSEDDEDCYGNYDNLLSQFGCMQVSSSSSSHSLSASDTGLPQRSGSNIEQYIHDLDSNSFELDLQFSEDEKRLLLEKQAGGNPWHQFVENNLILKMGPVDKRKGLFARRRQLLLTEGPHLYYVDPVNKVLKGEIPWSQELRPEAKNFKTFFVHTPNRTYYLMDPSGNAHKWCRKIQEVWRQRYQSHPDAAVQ

[2] = target: T2, Serine/threonine-protein kinase PLK4 (Homo sapiens) (UniProt O00444)
T2 sequence (whole entry): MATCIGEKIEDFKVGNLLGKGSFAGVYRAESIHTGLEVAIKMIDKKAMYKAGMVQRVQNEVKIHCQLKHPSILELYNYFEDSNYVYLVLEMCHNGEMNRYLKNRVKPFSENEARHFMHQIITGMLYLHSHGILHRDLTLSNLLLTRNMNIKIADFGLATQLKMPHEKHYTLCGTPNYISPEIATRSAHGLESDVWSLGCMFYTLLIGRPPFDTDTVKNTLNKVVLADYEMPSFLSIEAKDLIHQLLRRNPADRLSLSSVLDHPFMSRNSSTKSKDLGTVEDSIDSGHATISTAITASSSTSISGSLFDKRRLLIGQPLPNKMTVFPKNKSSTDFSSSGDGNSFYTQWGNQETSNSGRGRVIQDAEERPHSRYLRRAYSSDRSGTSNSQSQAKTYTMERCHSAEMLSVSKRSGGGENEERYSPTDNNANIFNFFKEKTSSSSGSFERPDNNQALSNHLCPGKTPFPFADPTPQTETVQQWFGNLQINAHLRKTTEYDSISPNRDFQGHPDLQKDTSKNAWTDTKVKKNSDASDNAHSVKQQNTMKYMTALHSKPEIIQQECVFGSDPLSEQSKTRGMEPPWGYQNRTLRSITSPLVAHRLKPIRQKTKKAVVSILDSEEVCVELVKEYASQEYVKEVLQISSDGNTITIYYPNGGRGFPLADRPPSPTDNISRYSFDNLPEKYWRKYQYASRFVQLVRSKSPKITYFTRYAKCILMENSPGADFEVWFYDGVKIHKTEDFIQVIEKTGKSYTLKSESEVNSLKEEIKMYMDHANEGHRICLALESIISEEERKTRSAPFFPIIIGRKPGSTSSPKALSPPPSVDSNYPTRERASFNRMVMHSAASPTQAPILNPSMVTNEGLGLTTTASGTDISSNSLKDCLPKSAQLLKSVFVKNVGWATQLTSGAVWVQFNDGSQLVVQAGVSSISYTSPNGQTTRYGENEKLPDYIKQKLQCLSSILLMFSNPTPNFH

[3] = target: Serine/threonine-protein kinase 16 (Homo sapiens) (UniProt O75716)
Serine/threonine-protein kinase 16 (Homo sapiens), sequence (O75716 whole entry): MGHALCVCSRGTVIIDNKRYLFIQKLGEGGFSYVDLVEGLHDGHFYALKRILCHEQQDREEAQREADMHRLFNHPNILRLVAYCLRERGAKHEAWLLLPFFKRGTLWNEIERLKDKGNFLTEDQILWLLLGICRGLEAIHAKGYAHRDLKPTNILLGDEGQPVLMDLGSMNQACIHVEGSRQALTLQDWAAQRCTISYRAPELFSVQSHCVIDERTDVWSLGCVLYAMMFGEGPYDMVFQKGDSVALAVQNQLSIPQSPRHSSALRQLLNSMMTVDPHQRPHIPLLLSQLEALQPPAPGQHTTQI

[4] = target: Serine/threonine-protein kinase Nek6 (Homo sapiens) (UniProt Q9HC98)
Serine/threonine-protein kinase Nek6 (Homo sapiens), sequence (Q9HC98 whole entry): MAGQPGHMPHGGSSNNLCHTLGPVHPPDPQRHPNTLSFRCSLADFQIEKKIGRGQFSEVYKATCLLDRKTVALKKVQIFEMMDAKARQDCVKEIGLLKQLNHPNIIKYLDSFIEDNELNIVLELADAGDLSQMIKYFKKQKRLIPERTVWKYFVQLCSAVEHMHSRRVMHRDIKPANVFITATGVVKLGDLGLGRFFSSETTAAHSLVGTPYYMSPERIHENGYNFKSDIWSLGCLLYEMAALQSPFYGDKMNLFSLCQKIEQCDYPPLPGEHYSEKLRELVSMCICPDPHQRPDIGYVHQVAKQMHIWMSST

[5] = target: Serine/threonine-protein kinase OSR1 (Homo sapiens) (UniProt O95747)
Serine/threonine-protein kinase OSR1 (Homo sapiens), sequence (O95747 2-527 limits assumed): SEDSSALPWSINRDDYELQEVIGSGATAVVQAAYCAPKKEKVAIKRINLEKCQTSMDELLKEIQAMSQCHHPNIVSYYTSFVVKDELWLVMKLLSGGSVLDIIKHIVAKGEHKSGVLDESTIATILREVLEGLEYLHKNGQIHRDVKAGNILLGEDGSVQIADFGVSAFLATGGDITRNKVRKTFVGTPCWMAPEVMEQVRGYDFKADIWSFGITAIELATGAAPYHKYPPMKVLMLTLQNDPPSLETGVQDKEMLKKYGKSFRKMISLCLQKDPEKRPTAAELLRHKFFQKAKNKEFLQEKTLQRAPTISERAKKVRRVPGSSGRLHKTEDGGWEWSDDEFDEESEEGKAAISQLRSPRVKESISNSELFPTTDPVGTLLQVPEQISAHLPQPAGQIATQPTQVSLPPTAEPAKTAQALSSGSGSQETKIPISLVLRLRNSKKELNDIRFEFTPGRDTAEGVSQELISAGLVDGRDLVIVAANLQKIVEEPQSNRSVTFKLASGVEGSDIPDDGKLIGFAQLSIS

[6] = target: Calcium/calmodulin-dependent protein kinase type II subunit beta (Homo sapiens) (UniProt Q13554)
Calcium/calmodulin-dependent protein kinase type II subunit beta (Homo sapiens), sequence (Q13554 whole entry): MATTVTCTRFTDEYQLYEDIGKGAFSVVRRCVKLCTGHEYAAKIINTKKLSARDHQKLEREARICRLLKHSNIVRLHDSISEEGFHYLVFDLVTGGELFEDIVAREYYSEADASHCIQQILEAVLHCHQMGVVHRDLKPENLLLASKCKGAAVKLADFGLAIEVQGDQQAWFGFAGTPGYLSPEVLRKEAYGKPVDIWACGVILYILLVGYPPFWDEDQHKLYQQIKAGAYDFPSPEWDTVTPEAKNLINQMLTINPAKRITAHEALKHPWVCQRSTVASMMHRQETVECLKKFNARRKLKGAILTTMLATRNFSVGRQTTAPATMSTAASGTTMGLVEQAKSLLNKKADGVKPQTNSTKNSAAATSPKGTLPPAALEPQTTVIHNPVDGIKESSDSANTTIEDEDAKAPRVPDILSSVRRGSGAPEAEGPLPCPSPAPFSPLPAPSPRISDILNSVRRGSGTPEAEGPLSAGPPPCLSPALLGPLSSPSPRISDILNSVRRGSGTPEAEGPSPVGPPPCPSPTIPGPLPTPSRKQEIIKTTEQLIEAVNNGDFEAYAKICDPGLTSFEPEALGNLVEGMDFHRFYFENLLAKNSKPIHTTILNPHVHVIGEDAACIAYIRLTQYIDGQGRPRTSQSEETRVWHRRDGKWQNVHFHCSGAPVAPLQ

[7] = target: Cyclin-dependent kinase-like 1 (Homo sapiens) (UniProt Q00532)
Cyclin-dependent kinase-like 1 (Homo sapiens), sequence (Q00532 whole entry): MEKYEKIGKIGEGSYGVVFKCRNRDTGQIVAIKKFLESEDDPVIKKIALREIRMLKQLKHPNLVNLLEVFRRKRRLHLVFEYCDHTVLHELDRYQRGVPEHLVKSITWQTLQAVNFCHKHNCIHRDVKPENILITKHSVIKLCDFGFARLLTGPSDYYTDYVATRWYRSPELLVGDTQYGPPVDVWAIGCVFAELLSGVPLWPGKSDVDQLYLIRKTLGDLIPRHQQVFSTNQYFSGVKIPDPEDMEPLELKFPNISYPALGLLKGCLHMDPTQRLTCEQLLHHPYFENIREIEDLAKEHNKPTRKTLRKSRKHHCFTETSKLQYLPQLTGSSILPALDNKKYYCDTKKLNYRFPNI

Row | SMILES | ΔTm [1] [°C] | ΔTm [2] [°C] | ΔTm [3] [°C] | ΔTm [4] [°C] | ΔTm [5] [°C] | ΔTm [6] [°C] | ΔTm [7] [°C]
1 | CC(C)n1cnc2/c(=N/c3cccc(Cl)c3)nc(NCCO)[nH]c21 | 0 | 1.3 | 2.6 | 0.1 | 1.3 | 0.4 | -0.1
2 | Cc1nc2sccn2c(=O)c1CCN1CCC(=C(c2ccccc2)c2ccc(F)cc2)CC1 | -0.8 | 2.8 | 3.1 | 0.1 | 1 | 0.9 | 0.4
3 | CN(c1cccnc1)c1cc2c(Nc3ccc(F)c(Cl)c3)c(C#N)cnc2cn1 | 1.2 | 8.2 | 8.7 | 1.5 | 0.3 | 1.2 | 5.4
4 | CC(C)(C)n1nc(-c2ccc(Cl)cc2)c2c(N)ncnc21 | -0.1 | 4.1 | 1 | 0.2 | 1.2 | 0.2 | -0.4
5 | COc1ccc(S(=O)(=O)N(CCO)c2ccccc2CN(C)C/C=C/c2ccc(Cl)cc2)cc1 | 0.4 | 1 | 0.5 | 0.3 | -0.7 | -1.6 | -1.2
6 | O=c1c2ccccc2[nH]c(=S)n1CCN1CCC(=C(c2ccc(F)cc2)c2ccc(F)cc2)CC1 [DIACYLGLYCEROL KINASE INHIBITOR II] | 0.6 | 0.8 | 0.3 | 0.1 | 2.4 | -1 | -0.5
7 | CN1CCc2[nH]c(=S)c(C#N)c(-c3cccs3)c2C1 | 1.5 | 10.7 | 0.5 | 0 | 0.8 | -0.2 | 11.1
8 | N#CC(C#N)=Cc1ccc(O)c(O)c1 [TYRPHOSTIN 23] | 0.2 | 0.7 | 0.4 | 0.6 | 0.8 | 0.1 | -0.1
9 | O=C1Cc2c([nH]c3ccc(Br)cc23)-c2ccccc2N1 [KENPAULLONE] | -0.8 | 7.1 | 0.7 | 0.4 | 1.8 | 0.5 | -0.1
10 | C[S+]([O-])c1ccc(CSc2nc(-c3ccc(F)cc3)c(-c3ccncc3)[nH]2)cc1 (stereo not given) | -0.3 | 0.3 | 0.5 | -0.2 | 0.1 | 0 | 0.2
11 | Cn1cnc2c(NCc3ccccc3)nc(NCCO)nc21 [OLOMOUCINE] | 0 | 0.2 | 0.7 | 0 | 0.2 | 0.2 | 0
12 | CCCCc1c(-c2ccc(O)cc2)[nH]c2nccnc12 [ALOISINE A] | 4 | 3.4 | 2.6 | 2.9 | 1.6 | 0.5 | 0.1
13 | C[S+]([O-])c1ccc(-c2nc(-c3ccc(F)cc3)c(-c3ccncc3)[nH]2)cc1 (stereo not given) [SB-203580] | -0.1 | 0.7 | 0.4 | 0.2 | -0.2 | 0 | -0.4
14 | Cc1ccc(NC(=O)c2cccc(N(C)C)c2)cc1NC(=O)c1ccc(O)cc1 | -0.4 | 0.8 | 0.5 | 0.3 | 2 | 0.4 | -0.4
15 | O=C1NC(=O)c2c1c1c3ccccc3n3c1c1c2c2ccccc2n1C1CCC3O1 | -0.1 | 0 | 1.7 | -0.3 | 0.7 | 1.2 | -0.4
16 | O=C1c2ccccc2-[n+]2ccc3c([nH]c4ccccc43)c21 [FASCAPLYSIN CHLORIDE] | -2.7 | -0.1 | -0.1 | -0.1 | -1.5 | -2 | -0.5
17 | Oc1cc(O)cc(/C=C/c2ccc(O)c(O)c2)c1 [PICEATANNOL] | -0.4 | 1.1 | 4.4 | 0.6 | 1.6 | -0.2 | -0.2
18 | COc1cc(OC)c(/C=C2\C(=O)Nc3ccccc32)c(OC)c1 | -0.1 | 0.3 | 0.2 | 0 | 0.2 | 0.1 | -0.5
19 | O=C1NC(=O)C(c2cn(CCCn3ccnc3)c3ccccc23)=C1Nc1ccccc1 | 0.1 | 0.8 | 0.6 | -0.1 | 0.2 | 0.7 | 0.3
20 | O=C1Nc2ccccc2/C1=C\c1ccc[nH]1 | 0.9 | 6 | 4.3 | 0 | 2.7 | 0.6 | 1.4
21 | CCOc1ccc(/C=C2/SC(=O)N(CCN)C2=O)cc1 [HIAZOLIDINEDIONE1] | -0.3 | 0.3 | -0.1 | -1.7 | -0.1 | -0.5 | 0.3
22 | O=C1C(Cl)=C(N2C(=O)CCC2=O)C(=O)c2ccccc21 | -1.9 | -3.7 | -0.1 | -0.3 | -1.4 | -1.5 | -0.5
23 | C/C(O)=C(\C#N)C(=O)Nc1cc(Br)ccc1Br | -3.7 | 1.1 | 0.4 | -0.2 | 1.1 | 0 | 0.8
24 | NC1=N/C(=C2/CCNC(=O)c3[nH]ccc32)C(=O)N1 [DEBROMOHYMENIALDISINE] | 0 | 0.9 | 0.4 | -0.5 | 0.4 | 0.7 | 0.3
25 | N#C/C(=C(/N)Sc1ccc(N)cc1)c1ccccc1C(F)(F)F | -0.1 | 0.1 | 0.2 | -0.1 | 0.5 | 0.5 | -0.2
26 | N=C(N)NCCNS(=O)(=O)c1cccc2cnccc12 | -0.3 | 0.1 | 0.3 | 0.2 | 1.1 | 0.4 | 0
27 | CC(C)(C)n1nc(-c2cccc3ccccc23)c2c(N)ncnc21 | -0.4 | 1.1 | 0.7 | 0.1 | 1.1 | 0.2 | -0.5
28 | Cc1[nH]c(/C=C2\C(=O)Nc3ccc(S(=O)(=O)N(C)c4cccc(Cl)c4)cc32)c(C)c1C(=O)N1CCN(C)CC1 | -0.6 | 0.8 | 0.6 | 0.4 | 1.6 | 0.8 | -0.5
29 | CCOC(=O)c1c(C)[nH]c(/C=C2\C(=O)Nc3ccccc32)c1C | 0.2 | 2.3 | 0.6 | 0.1 | -0.1 | 0.7 | 0.5
30 | COc1cc2ncnc(Nc3ccc(NC(=O)c4ccccc4)cc3)c2cc1OC [ANILINOQUINAZOLINE1] | 1.1 | 0.5 | 0.4 | 0.5 | 0.3 | 0.3 | 0
